Test results from PMC11243149, “Assessing the Effects of Thiazole-Carboxamide Derivatives on the Biophysical Properties of AMPA Receptor Complexes as a Potential Neuroprotective Agent” (Molecules, 2024).
Like-named read-outs stand apart in the source and are kept apart here.

Columns and labels:
Format in all cases: cell-based
[1] = molecular target: T1, GluA1/2 (Homo sapiens, UniProt P42261+P42262); test: Whole-cell patch-clamp recordings of heteromeric GluA1/2 AMPAR in transfected HEK293T cells; details: for Amplitude (glutamate plus TC compound): 10 mM glutamate + TC compound (12 µM optimal concentration), HEK293T, -60 mV, pH 7.4, 22 °C, mean ± SEM; for Amplitude (glutamate plus TC compound) / Amplitude, applying glutamate alone after TC compound: n = 10; for Amplitude, applying glutamate alone after TC compound: 10 mM glutamate alone after 20 s wash following the TC compound; for A/AI: ratio of current with glutamate alone (A) to inhibited current after TC compound (AI); for t deact: weighted tau of deactivation, 10 mM glutamate for 1 ms, glutamate alone 2.5±0.3; for t deact / t des: with TC compound; for t des: weighted tau of desensitization, 10 mM glutamate 500 ms, glutamate alone 5.2±0.5
T1 construct: expressed in transfected cells; host or cells: HEK293T
Procedure: (§1) The effect of five TC compounds on whole-cell currents of four AMPAR subunits (GluA1, GluA1/2, GluA2, and GluA2/3) was investigated using transfected HEK293T cells. Each compound was applied separately to each subunit, with experiments conducted on 8–10 cells per condition to ensure reproducibility. […] At a glutamate concentration of 10 mM and a 500 ms protocol, approximately 95% of AMPAR channels were open. The A/AI ratio was calculated to compare the results, where A represents normalized current readings and AI indicates the inhibited current following TC compound exposure. […] Following closely, TC-1 inhibited the tested subunits by 5-fold.
(§2) The IC50 values were examined using GraphPad Prism software 9.5.0.730 (x64) (Table S6), which confirmed these findings. The IC50 values of TC substances were calculated by standardizing the peak current amplitudes using data obtained from 8–10 cells. Following a 500 ms exposure to the compounds, the cells were rinsed with glutamate for 20 s. Next, a solution containing just glutamate at a concentration of 10 mM was administered, and the resulting immediate induced electrical current was measured and documented (Figure 3).
(§3) In addition, an evaluation was conducted on the deactivation rates (τw deact) of all the examined chemicals to investigate their impact on the kinetics of deactivation. The chemicals were assessed for their effect on the deactivation kinetics of AMPAR subunits by briefly administering 10 mM glutamate for 1 ms to begin currents. This experimental setup allowed for the observation of τw deact under controlled conditions. […] TC-5 induced an approximately 2-fold increase in τw deact across all four tested subunits. […] These findings highlight the differential impact of TC compounds on deactivation kinetics across AMPAR subunits, shedding light on their potential neuroprotective mechanisms.
(§4) The flip isoform was uniformly employed across all AMPAR subunits in this study. These subunits were subcloned into the pRK vector and expressed in Human Embryonic kidney cells sourced (Sigma, München, Germany). HEK293T cells were grown in Dulbecco Modified Eagle Medium (DMEM) (Sigma, München, Germany) containing 10% FBS (fetal bovine serum), 0.1 mg/mL streptomycin, and 1 mM sodium pyruvate (Biological Industries; Beit-Haemek, Israel). HEK293T cells were incubated at 37 °C and 5% CO2 was supplemented to the medium. It was subcultured twice a week until cells reached pass #20. The transfection reagent used was either jetPRIME (Polyplus: New York, NY, USA) or Lipofectamine 2000 (Invitrogen; San Diego, CA, USA). Cells were kept for 36 h. after transfection in 12-well plates. Then, they were replated on coverslips coated with Laminin (1 mg/mL; Sigma, Germany) for electrophysiology recordings. Cells were then seeded in Petri dishes in DMEM supplemented with 10% fetal calf serum and antibiotics and maintained in a humidified incubator at 37 °C and 5% CO2. Highly fluorescent cells were identified and selected for recording post-transfection.
(§5) HEK293T cells were recorded for 36–48 h, at a temperature of 22 °C, with a membrane potential of −60 mV. HEK293T cells were recorded 36–48 h after transfection using IPA (Integrated Patch Amplifier) via the […], at a temperature of 22 °C, with a membrane potential of −60 mV. SutterPatch Software v. 1.1.1 (Sutter Instruments, Novato, CA, USA) was used to digitize membrane currents for a short period. The sampling frequency was set to 10 kHz, and the low-pass filter was set to 2 kHz. Borosilicate glass was used to fabricate the patch electrodes with a resistance of 2–4 MΩ. The extracellular solution contained the following (values are in mM): 150 NaCl, 2.8 KCl, 0.5 MgCl2, 2 CaCl2, and 10 HEPES, adjusted to pH 7.4 with NaOH. The pipette solution contained the following (values are in mM): 110 CsF, 30 CsCl, 4 NaCl, 0.5 CaCl2, 10 […], and 10 HEPES, adjusted to pH 7.2 with CsOH. […]

[2] = molecular target: T2, GluA2 (Homo sapiens, UniProt P42262); test: Whole-cell patch-clamp recordings of homomeric GluA2 AMPAR in transfected HEK293T cells; details: for Amplitude (glutamate plus TC compound): 10 mM glutamate + TC compound (12 µM optimal concentration), HEK293T, -60 mV, pH 7.4, 22 °C, mean ± SEM; for Amplitude (glutamate plus TC compound) / Amplitude, applying glutamate alone after TC compound: n = 10; for Amplitude, applying glutamate alone after TC compound: 10 mM glutamate alone after 20 s wash following the TC compound; for t deact: weighted tau of deactivation, 10 mM glutamate for 1 ms, glutamate alone 2.3±0.1; for t deact / t des: with TC compound; for t des: weighted tau of desensitization, 10 mM glutamate 500 ms, glutamate alone 2.6±0.1
T2 construct: expressed in transfected cells; host or cells: HEK293T
Procedure: as §1, §2, §3, §4, §5

[3] = molecular target: T3, GluA2/3 (Homo sapiens, UniProt P42262+P42263); test: Whole-cell patch-clamp recordings of heteromeric GluA2/3 AMPAR in transfected HEK293T cells; details: for Amplitude (glutamate plus TC compound): 10 mM glutamate + TC compound (12 µM optimal concentration), HEK293T, -60 mV, pH 7.4, 22 °C, mean ± SEM; for Amplitude (glutamate plus TC compound) / Amplitude, applying glutamate alone after TC compound: n = 10; for Amplitude, applying glutamate alone after TC compound: 10 mM glutamate alone after 20 s wash following the TC compound; for A/AI: ratio of current with glutamate alone (A) to inhibited current after TC compound (AI); for t deact: weighted tau of deactivation, 10 mM glutamate for 1 ms, glutamate alone 2.6±0.3; for t deact / t des: with TC compound; for t des: weighted tau of desensitization, 10 mM glutamate 500 ms, glutamate alone 2.7±0.2
T3 construct: expressed in transfected cells; host or cells: HEK293T
Procedure: as §1, §2, §3, §4, §5

[4] = tested on: AMPAR subunits (GluA1, GluA1/2, GluA2, and GluA2/3); test: Whole-cell patch-clamp recordings, statements over all tested AMPAR subunits; details: for reduction in τw des: across all examined subunits; for increase in τw deact / decrease in AMPAR subunit activity (inhibition of the whole-cell current): all tested subunits; for increase in τw deact: 10 mM glutamate for 1 ms; for decrease in AMPAR subunit activity (inhibition of the whole-cell current): 10 mM glutamate, 500 ms protocol
Procedure: as §1
A thorough investigation was performed to assess the neuroprotective potential of the TC compounds. The influence of the five TC compounds on the desensitization traces is seen in Figure 4, namely in panels b, d, f, and h. TC-2 caused a substantial reduction in τw des in all receptor subunits, with decreases ranging from 2 to 3 times.
as §3, §4
as §5, with “CsOH. Using double barrel glass (theta tube), glutamate and the solutions of choice were rapidly administered, and the theta tube was mounted on a high-speed piezo solution switcher (Automate Scientific, Berkeley, CA, USA).” for “CsOH.”

[5] = molecular target: T4, GluA1 (Homo sapiens, UniProt P42261); test: Whole-cell patch-clamp recordings of homomeric GluA1 AMPAR in transfected HEK293T cells; details: GluA1; for Amplitude (glutamate plus TC compound): 10 mM glutamate + TC compound (12 µM optimal concentration), HEK293T, -60 mV, pH 7.4, 22 °C, mean ± SEM; for t deact: weighted tau of deactivation, 10 mM glutamate for 1 ms, glutamate alone 2.1±0.1; for t deact / t des: with TC compound; for t des: weighted tau of desensitization, 10 mM glutamate 500 ms, glutamate alone 2.5±0.1
T4 construct: expressed in transfected cells; host or cells: HEK293T
Procedure: as §1, §2, §3, §4, §5

[6] = Table S6, peak current amplitudes, 8-10 cells, GraphPad Prism fit, read-out: IC50
[7] = Table S6, read-out: Log IC50 (converted)
[8] = ratio of current with glutamate alone (A) to inhibited current after TC compound (AI)

T2 sequence (P42262 25-883 isoform P42262-2 limits assumed, species assumed): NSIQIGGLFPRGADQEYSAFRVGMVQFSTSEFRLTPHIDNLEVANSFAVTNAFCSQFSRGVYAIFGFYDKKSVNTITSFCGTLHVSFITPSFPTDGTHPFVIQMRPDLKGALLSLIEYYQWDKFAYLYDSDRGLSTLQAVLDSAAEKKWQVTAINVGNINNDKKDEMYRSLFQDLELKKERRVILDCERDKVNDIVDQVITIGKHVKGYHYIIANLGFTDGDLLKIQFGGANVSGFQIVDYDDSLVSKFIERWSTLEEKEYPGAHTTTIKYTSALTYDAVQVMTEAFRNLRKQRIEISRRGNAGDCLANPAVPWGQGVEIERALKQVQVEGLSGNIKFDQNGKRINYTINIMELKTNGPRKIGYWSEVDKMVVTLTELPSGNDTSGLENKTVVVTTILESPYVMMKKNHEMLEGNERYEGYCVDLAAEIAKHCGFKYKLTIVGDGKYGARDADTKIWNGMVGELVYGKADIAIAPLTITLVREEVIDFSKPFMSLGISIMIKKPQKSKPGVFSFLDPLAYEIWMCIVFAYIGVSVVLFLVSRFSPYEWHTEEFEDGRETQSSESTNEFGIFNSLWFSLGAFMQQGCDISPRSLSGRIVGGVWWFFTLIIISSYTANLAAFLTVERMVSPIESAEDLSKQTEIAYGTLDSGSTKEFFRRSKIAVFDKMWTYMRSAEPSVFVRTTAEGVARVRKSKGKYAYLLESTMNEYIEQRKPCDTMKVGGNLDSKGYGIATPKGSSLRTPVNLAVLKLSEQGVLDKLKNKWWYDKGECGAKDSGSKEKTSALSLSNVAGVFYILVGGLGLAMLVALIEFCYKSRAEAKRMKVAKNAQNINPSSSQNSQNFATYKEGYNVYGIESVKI
T3 sequence (P42262 25-883 isoform P42262-2 limits assumed): as the sequence (P42262 25-883 isoform P42262-2 limits assumed, species assumed) above
T3 sequence (P42263 29-894 isoform P42263-2 limits assumed): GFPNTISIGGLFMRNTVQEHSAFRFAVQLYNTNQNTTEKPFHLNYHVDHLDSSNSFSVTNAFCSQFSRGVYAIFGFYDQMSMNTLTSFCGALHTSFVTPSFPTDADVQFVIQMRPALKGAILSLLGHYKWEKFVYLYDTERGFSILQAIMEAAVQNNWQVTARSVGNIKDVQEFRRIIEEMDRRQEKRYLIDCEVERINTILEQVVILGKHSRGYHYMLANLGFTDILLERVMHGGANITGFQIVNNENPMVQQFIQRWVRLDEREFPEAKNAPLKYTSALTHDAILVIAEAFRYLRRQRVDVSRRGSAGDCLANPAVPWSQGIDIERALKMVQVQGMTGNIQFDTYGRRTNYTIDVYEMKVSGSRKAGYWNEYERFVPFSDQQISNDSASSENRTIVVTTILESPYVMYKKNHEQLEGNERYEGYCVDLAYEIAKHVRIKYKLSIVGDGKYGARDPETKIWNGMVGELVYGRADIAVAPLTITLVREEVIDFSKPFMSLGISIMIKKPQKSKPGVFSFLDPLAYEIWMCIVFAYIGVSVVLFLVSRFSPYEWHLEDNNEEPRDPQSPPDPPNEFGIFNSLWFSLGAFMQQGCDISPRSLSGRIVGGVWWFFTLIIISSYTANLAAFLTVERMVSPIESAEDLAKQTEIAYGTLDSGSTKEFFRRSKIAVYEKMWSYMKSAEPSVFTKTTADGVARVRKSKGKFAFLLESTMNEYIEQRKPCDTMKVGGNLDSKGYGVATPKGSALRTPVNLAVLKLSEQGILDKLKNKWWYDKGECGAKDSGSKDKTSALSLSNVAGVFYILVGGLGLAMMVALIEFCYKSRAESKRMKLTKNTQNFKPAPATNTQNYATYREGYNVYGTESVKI
T4 sequence (P42261 19-906 isoform P42261-2 limits assumed, species assumed): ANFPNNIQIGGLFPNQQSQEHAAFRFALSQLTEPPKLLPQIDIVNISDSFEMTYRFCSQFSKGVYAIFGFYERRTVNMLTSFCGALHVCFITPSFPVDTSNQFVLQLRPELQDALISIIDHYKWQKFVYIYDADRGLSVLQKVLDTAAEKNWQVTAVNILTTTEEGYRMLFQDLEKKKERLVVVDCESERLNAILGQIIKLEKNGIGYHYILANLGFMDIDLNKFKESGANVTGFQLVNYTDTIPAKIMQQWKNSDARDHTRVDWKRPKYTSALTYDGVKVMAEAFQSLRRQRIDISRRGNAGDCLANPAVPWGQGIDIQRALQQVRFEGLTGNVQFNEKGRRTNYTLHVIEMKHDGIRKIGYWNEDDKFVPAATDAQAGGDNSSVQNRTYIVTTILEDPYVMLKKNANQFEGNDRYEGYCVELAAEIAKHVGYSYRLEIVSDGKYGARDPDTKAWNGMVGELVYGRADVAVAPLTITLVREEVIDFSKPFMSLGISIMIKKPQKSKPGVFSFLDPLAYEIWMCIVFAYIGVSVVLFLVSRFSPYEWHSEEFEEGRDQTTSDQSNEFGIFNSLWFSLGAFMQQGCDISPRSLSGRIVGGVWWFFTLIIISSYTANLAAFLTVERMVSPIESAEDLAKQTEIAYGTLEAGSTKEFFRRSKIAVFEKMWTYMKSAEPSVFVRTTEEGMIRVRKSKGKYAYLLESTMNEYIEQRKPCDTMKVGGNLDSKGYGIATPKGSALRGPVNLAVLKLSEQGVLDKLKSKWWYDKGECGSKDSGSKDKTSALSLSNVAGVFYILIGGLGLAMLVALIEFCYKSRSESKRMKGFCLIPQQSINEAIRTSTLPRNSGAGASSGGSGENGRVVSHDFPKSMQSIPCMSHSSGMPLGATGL
T1 sequence (P42261 19-906 isoform P42261-2 limits assumed): as the sequence (P42261 19-906 isoform P42261-2 limits assumed, species assumed) above
T1 sequence (P42262 25-883 isoform P42262-2 limits assumed): as the sequence (P42262 25-883 isoform P42262-2 limits assumed, species assumed) above

SMILES | Amplitude (glutamate plus TC compound) [1] | Amplitude, applying glutamate alone after TC compound [1] | IC50 [1, 7] | A/AI [1] | t deact [1] | t des [1] | Amplitude (glutamate plus TC compound) [2] | Amplitude, applying glutamate alone after TC compound [2] | IC50 [2, 7] | IC50 ([2]; read-out: IC50) | t deact [2] | t des [2] | Amplitude (glutamate plus TC compound) [3] | Amplitude, applying glutamate alone after TC compound [3] | IC50 [3, 7] | A/AI [3] | t deact [3] | t des [3] | reduction in τw des [4] | increase in τw deact [4] | also measured
COc1ccc(-c2nc(C(=O)Nc3cc(OC)ccc3OC)cs2)cc1 [TC-5] | 123±20 pA | 553±89 pA | 3.47 µM | 4.80±0.07 | 5.6 ± 0.4 ms | 3.8 ± 0.3 ms | 250±35 pA | 1071±134 pA | 3.31 µM | 3.35 µM | 5.8 ± 0.3 ms | 1.2 ± 0.1 ms | 99±22 pA | 443±96 pA | 3.39 µM | 4.79±0.20 | 5.7 ± 0.4 ms | 1.3 ± 0.2 ms | roughly twofold | around 2 fold | IC50 [1, 6]: 3.49 µM; IC50 [3, 6]: 3.42 µM; decrease in AMPAR subunit activity (inhibition of the whole-cell current) [4]: approximately 5 fold; Amplitude (glutamate plus TC compound) ([5]; n = 10): 177±33 pA; IC50 [5, 6]: 3.51 µM; IC50 [5, 7]: 3.55 µM; A/AI [5, 8]: 4.67±0.10; t deact [5]: 5.5 ± 0.4 ms; t des [5]: 1.4 ± 0.1 ms
COc1ccc(-c2nc(C(=O)Nc3cc(OC)c(OC)c(OC)c3)cs2)cc1 [TC-2] | 115±12 pA | 597±66 pA | 3.09 µM | 5.38±0.08 | 6.0 ± 0.5 ms | 3.7 ± 0.3 ms | 212±20 pA | 1131±105 pA | 3.02 µM | 3.02 µM | 6.3 ± 0.2 ms | 0.9 ± 0.1 ms | 94±14 pA | 484±68 pA | 3.02 µM | 5.33±0.23 | 5.9 ± 0.4 ms | 1.0 ± 0.2 ms | 2 to 3 fold | ~2.5 fold | IC50 ([1]; read-out: IC50): 3.1 µM; A/AI [2, 8]: 5.49±0.05; IC50 ([3]; read-out: IC50): 3.04 µM; decrease in AMPAR subunit activity (inhibition of the whole-cell current) [4]: ~5.5 fold; Amplitude (glutamate plus TC compound) ([5]; n = 10): 172±18 pA; Amplitude, applying glutamate alone after TC compound ([5]; 10 mM glutamate alone after 20 s wash following the TC compound, n = 10): 841±88 pA; IC50 [5, 7]: 3.24 µM; IC50 ([5]; read-out: IC50): 3.2 µM; t deact [5]: 5.6 ± 0.3 ms; t des [5]: 1.1 ± 0.1 ms
